From US9386767B2, “Derivatives of dillapiol and related monolignans and use thereof” (UNIVERSITY OF OTTAWA, priority 2011, dated 2016)
Several values for one entry are separate records, joined by “and”; a condition that tells them apart may be missing. Equal entries are not always repeated. Where two headings read alike, the source gives them in different places.

How the values were obtained:
CYP3A4 (BDGentest) = target: T1, CYP3A4 (BDGentest) (Homo sapiens, UniProt P08684); test: New CYP3A4 bioassay with dibenzylfluorescein (DBF) substrate (Foster et al. 2011); assay type: biochemical; conditions: for IC50: human microsomes; for % Activity relative to dillapiol = 1: new CYP3A4 bioassay, inhibition relative to dillapiol
T1 construct: purchased BDGentest
T1 sequence (P08684 whole entry): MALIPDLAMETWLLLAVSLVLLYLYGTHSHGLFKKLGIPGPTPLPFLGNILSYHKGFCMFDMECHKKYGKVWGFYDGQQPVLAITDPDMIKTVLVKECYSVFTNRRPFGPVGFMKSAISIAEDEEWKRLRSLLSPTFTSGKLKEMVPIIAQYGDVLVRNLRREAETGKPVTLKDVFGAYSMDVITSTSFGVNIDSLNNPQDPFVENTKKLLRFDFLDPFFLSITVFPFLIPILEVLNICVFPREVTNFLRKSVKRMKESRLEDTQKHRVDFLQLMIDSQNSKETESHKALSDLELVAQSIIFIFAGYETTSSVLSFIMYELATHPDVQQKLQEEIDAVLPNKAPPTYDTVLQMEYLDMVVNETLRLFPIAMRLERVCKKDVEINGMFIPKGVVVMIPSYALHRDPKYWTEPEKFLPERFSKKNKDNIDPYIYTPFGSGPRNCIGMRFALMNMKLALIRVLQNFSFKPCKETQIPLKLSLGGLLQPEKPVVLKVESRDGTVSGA
Procedure: (§1) In the second set of experiments, new CYP3A4 enzyme inhibition assays were conducted with a designed set of analogs and newer method described by Foster et al. (J. Agric. Food Chem, 2011, 59(9):5159-5163). This assay using the substrate dibenzylfluorescein (DBF) is considered more representative of CYP3A4 activity as compared to the benzyloxyresorufin assay previously used (Budzinski et al., 2000, Phytomedicine, 7(4):273-282).
(§2) Aliquots (10 μL) of stock solutions of the undiluted products were screened for their ability to inhibit CYP3A4 (BDGentest) metabolism of the non-fluorescent dibenzylfluorescein (DBF) substrates to the fluorescent metabolite using an in vitro fluorometric microtiter plate assay (CytoFluor Series 4000 multi-well plate reader). Briefly, assays were performed with 10 μL of product in clear-bottom, opaque-welled microtiter plates (96 well, Corning Costar). Control and control blank wells contained 5% ethanol, and test and test blank wells contained the product. All wells tested contained distilled water, β-nicotinamide adenine dinucleotide phosphate, reduced form (NADPH, Sigma Chemicals), and the enzyme substrate DBF (final concentration of 1 μM/well), for a total reaction volume of 200 μL. Control and test wells also contained live isozyme, within human microsomes, in phosphate buffer solution (PBS; 0.5 M, pH 7.4), and control blank and test blank wells contained denatured isoenzyme in PBS. Fluorescence was measured at 485 nm excitation and 530 nm emission, with a gain of 50.

CYP3A4 = target: T2, CYP3A4 (Homo sapiens, UniProt P08684); test: as above; assay type: biochemical; conditions: human, CYP3A4 (BDGentest) isozyme within human microsomes, pH 7.4, probe dibenzylfluorescein (DBF), 1 μM final, DBF substrate 1 μM, human microsomes
T2 construct: purchased BDGentest
T2 sequence (P08684 whole entry): as above
Procedure: as §1, §2

human cytochrome CYP3A4 [1] = target: T3, human cytochrome CYP3A4 (Homo sapiens, UniProt P08684); test: CYP3A4 inhibition assay of dillapiol derivatives (earlier benzyloxyresorufin assay); assay type: biochemical; conditions: for Rel. Activity Dillapiol = 1.0: CYP3A4 inhibition relative to dillapiol
T3 sequence (P08684 whole entry): as above
Procedure: A suite of dillapiol derivatives were synthesized and assayed for their capacity to inhibit human cytochrome CYP3A4. For each molecule, experimental IC50 values for CYP3A4 inhibition were determined. These IC50 values together with the log of the octanol-water partition coefficient (logP) and molecular refractivity (MR) are shown in Table 1, and were used as parameters to model a quantitative structure-activity relationship (QSAR). The resulting equations were used to guide the design of further derivatives with enhanced CYP3A4 inhibition.
as §1

parasitemia = conditions: co-administration of dillapiol with genudin, mice; cited from earlier work
mosquito larvae = conditions: co-administration of dillapiol with alpha-terthienyl; increased toxicity in mosquito larvae; cited from earlier work
human cytochrome CYP3A4 [2] = target: T3, human cytochrome CYP3A4; conditions: Budzinski et al., 2000; cited from earlier work
[3] = DBF substrate 1 μM, read-out: IC50 (converted)
[4] = Table 1, CYP3A4 inhibition, read-out: IC50

| SMILES | Rel. Activity Dillapiol = 1.0 (human cytochrome CYP3A4 [1]; Table 1) | IC50 (human cytochrome CYP3A4 [1]; [4]) [µM] | other results |
| --- | --- | --- | --- |
| COc1c(CCCO)cc2c(c1OC)OCO2 |  |  | IC50 (CYP3A4 (BDGentest); [3]): 16.6 µM; % Activity relative to dillapiol = 1 (CYP3A4 (BDGentest)): 0.57; IC50 (CYP3A4): 16 µM |
| COc1c(/C=C/CC(O)(c2ccccc2)c2ccccc2)cc2c(c1OC)OCO2 [Compound 1] | 100 and 114 | 3.6 | CYP3A4 inhibition compared with dillapiol (in words) (human cytochrome CYP3A4 [1]; Table 1): at least four times lower than dillapiol; CYP3A4 inhibition (in words) (CYP3A4 (BDGentest)): increased inhibition of CYP3A4 compared to dillapiol; IC50 (CYP3A4 (BDGentest); [3]): 1.58 µM; % Activity relative to dillapiol = 1 (CYP3A4 (BDGentest)): 5.8 |
| C=CCc1cc2c(c(CC=C)c1O)OCO2 [Compound 11] | 1.9 | 210 |  |
| COc1c(CCCOC(=O)c2ccccc2)cc2c(c1OC)OCO2 [Compound 12] | 29 | 14 | CYP3A4 inhibition compared with dillapiol (in words) (human cytochrome CYP3A4 [1]; Table 1): at least four times lower than dillapiol; CYP3A4 inhibition (in words) (CYP3A4 (BDGentest)): increased inhibition of CYP3A4 compared to dillapiol; IC50 (CYP3A4 (BDGentest); [3]): 2.1 µM and 2.11 µM; % Activity relative to dillapiol = 1 (CYP3A4 (BDGentest)): 4.4 |
| C=CCc1cc2c(c(COCC(=O)OCC)c1OC)OCO2 [Compound 13] | 4.2 | 98 | CYP3A4 inhibition compared with dillapiol (in words) (human cytochrome CYP3A4 [1]; Table 1): at least four times lower than dillapiol |
| C=CCc1cc2c(cc1O)OCO2 [Compound 14] | 0.75 | 550 |  |
| C=CCc1cc2c(c(S(C)(=O)=O)c1OC)OCO2 [Compound 15] | 0.37 | 1100 |  |
| C=CCc1cc2c(c(Sc3ccccc3)c1OC)OCO2 [Compound 16] | 0.84 | 480 |  |
| C=CCc1cc2c(c(Br)c1O)OCO2 [Compound 17] | 0.68 | 600 |  |
| C=CCc1cc2c(c(SC)c1OC)OCO2 [Compound 18] | 1.3 |  | IC50 (human cytochrome CYP3A4 [1]): 320 µM |
| C=CCc1cc2c(c(SC)c1O)OCO2 [Compound 19] | 1.0 | 420 |  |
| C=CCc1cc2c(c(Sc3ccc(OC)cc3)c1OC)OCO2 [Compound 22] | 0.67 | 660 |  |
| C=CCc1cc2c(c(S(=O)(=O)c3ccc(OC)cc3)c1O)OCO2 [Compound 23] | 1.8 | 230 |  |
| C=CCc1cc2c(c(SCc3ccccc3)c1O)OCO2 [Compound 24] | 1.6 |  |  |
| C=CCc1cc2c(c(SCc3ccccc3)c1OC)OCO2 [Compound 25] | 9 and 9.3 | 44 | CYP3A4 inhibition compared with dillapiol (in words) (human cytochrome CYP3A4 [1]; Table 1): at least four times lower than dillapiol |
| C=CCc1cc2c(c([S+]([O-])c3ccccc3)c1OC)OCO2 (stereo not shown) [Compound 26] | 2.7 | 150 |  |
| C=CCc1cc2c(c([S+]([O-])Cc3ccccc3)c1OC)OCO2 (stereo not shown) [Compound 27] | 6.4 | 64 | CYP3A4 inhibition compared with dillapiol (in words) (human cytochrome CYP3A4 [1]; Table 1): at least four times lower than dillapiol |
| C=CCc1cc2c(c(OC)c1OC)OCO2 [dillapiol, 4,5 dimethoxy-6-(2-propenyl)-1,3-benzodioxole] | 1.0 |  | increase of parasitemia clearance (parasitemia): 29%; synergism factor (mosquito larvae): 1.9; IC50 (human cytochrome CYP3A4 [1]): 410 µM; inhibition of human cytochrome P450 3A4 (in words) (human cytochrome CYP3A4 [2]): inhibits the human cytochrome P450 3A4 (CYP3A4) enzyme; IC50 (CYP3A4 (BDGentest); IC50, DBF substrate 1 μM): 9.45 µM; % Activity relative to dillapiol = 1 (CYP3A4 (BDGentest)): 1 |
